# Tested on: H5 serum type avian influenza virus
# Set-up: species or system yellow chicken
# Conditions: in vivo
structure (smiles),measurement,value
"CC(N)C12CC3CC(CC(C3)C1)C2 (stereo not drawn) [Group C, Rimantadine]",Effective rate,42.5%
same,Number of death,23
same,Rate of death,57.5%

# From patent US8795742B2 (priority 2006, dated 2014)
